The target of assay [1] is T1, STAT6 (Homo sapiens, UniProt P42226).
T1 construct: These cells express endogenous STAT6; host or cells: HeLa LgBiT clone 4.14
T1 sequence (P42226 1-847): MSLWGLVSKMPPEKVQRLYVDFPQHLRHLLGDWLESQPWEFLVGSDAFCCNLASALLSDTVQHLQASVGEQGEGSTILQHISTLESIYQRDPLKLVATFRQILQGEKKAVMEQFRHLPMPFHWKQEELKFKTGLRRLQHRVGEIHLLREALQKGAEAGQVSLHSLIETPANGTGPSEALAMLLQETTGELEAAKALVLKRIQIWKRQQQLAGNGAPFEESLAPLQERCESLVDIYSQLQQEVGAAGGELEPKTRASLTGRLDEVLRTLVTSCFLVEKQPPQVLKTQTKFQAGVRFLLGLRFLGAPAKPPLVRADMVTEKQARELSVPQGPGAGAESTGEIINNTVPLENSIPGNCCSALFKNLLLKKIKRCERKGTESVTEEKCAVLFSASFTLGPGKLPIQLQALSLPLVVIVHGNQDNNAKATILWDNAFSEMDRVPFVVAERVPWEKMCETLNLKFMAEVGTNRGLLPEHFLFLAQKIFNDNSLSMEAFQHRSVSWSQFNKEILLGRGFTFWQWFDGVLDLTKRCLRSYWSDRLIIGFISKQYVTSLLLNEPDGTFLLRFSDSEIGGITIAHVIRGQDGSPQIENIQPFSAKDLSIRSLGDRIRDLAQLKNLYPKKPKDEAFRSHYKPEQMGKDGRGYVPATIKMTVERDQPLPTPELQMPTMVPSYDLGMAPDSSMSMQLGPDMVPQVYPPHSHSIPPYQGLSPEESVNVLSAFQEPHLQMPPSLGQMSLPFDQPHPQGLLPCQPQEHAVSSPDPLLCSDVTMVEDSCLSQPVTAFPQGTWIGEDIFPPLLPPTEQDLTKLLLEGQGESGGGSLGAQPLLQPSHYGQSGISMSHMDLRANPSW
Briefly: Stat6 Degrader Assay (HiBiT based, HeLa LgBiT clone 4.14). It is filed as cell-based. Conditions: HeLa LgBiT clone 4.14 HiBiT-STAT6, 4-24 h incubation; values given for compounds with >80% Emax; geometric mean; read-out: STAT6 degradation DC50. The procedure, abridged: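 HeLa LgBiT clone 4.14 cells with CRISPR HiBiT-tagged endogenous STAT6, 5000 cells/well, compound dosed then incubated 4-24 h at 37° C, 5% CO2. Nano-Glo substrate added, 0.5 h, luminescence read as non-degraded STAT6. Terfenadine 50 μM (cell kill) defines 100% degradation.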
In general terms: HiBiT is a short tag that completes a luciferase, so light tracks the accessible tagged protein.

Assay [2] deals with Eotaxin-3 release in human whole blood stimulated with IL-4. Nature of the assay: Human Whole Blood Eotaxin-3 Assay (IL-4 stimulated eotaxin-3 release). It is filed as cell-based. The conditions noted are these: IL-4 stimulation, 48 h, values given for compounds with >80% Emax, geometric mean. The procedure, abridged: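 Lithium-heparin human whole blood preincubated 2 h at 37° C with 4-fold serially diluted compounds (0.5% DMSO), then stimulated with recombinant human IL-4 ([…]) for 48 h. Eotaxin-3 (CCL26) in supernatant quantified by MSD immunoassay.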

The results in this text go back to patent US20250320206A1, “STAT6 DEGRADERS” (Gilead Sciences, Inc., priority 2024, published 2025).

Usually DC50 stands for the concentration at which degradation of the target reaches its halfway point. What is called EC50 is the concentration that produces a half-maximal response. On to `CNc1ccn(-c2ccnc3c2cc(CN2CCC(c4c(F)cc(C(=O)N5CCC(CN6CCN(Cc7ccc8c(c7)C7(CC7)C(=O)N8C7CCC(=O)NC7=O)C[C@@H]6C)CC5)cc4F)CC2)n3C)c(=O)n1` (stereo partly drawn) [Example 3h12, 3-(5′-(((S)-4-((1-(3,5-difluoro-4-(1-((1-methyl-4-(4-(methylamino)-2-oxopyrimidin-1 (2H)-yl)-1H-pyrrolo[2,3-b]pyridin-2-yl)methyl)piperidin-4-yl)benzoyl)piperidin-4-yl)methyl)-3-methylpiperazin-1-yl)methyl)-2′-oxospiro[cyclopropane-1,3′-indolin]-1′-yl)piperidine-2,6-dione], for which the DC50 in assay [1] is 3.2 nM. The compound further displayed an EC50 in assay [2] of 1.3 nM.

For the compound `CNc1ccn(-c2ccnc3c2cc(CN2CC=C(c4c(F)cc(C(=O)N5CCC(CN6CCN(Cc7ccc8c(c7)n(C)c(=O)n8C7CCC(=O)NC7=O)C[C@@H]6C)CC5)cc4F)CC2)n3C)c(=O)c1` (stereo partly drawn) [Example 3u1, 3-(5-(((S)-4-((1-(3,5-difluoro-4-(1-((1-methyl-4-(4-(methylamino)-2-oxopyridin-1 (2H)-yl)-1H-pyrrolo[2,3-b]pyridin-2-yl)methyl)-1,2,3,6-tetrahydropyridin-4-yl)benzoyl)piperidin-4-yl)methyl)-3-methylpiperazin-1-yl)methyl)-3-methyl-2-oxo-2,3-dihydro-1H-benzo[d]imidazol-1-yl)piperidine-2,6-dione], in assay [1], the DC50 turned out to be 0.9 nM. The compound also gave an EC50 in assay [2] of 1 nM.

As to `CNc1cc(=O)n(-c2ccnc3c2cc([C@H](C)N2CC=C(c4c(F)cc(C(=O)N5CCC(CN6CCN(Cc7ccc8c(c7)C(C)(C)C(=O)N8C7CCC(=O)NC7=O)C[C@@H]6C)CC5)cc4F)CC2)n3C)cc1F` (stereo partly drawn) [Example 3u9, 3-(5-(((S)-4-((1-(3,5-difluoro-4-(1-((S)-1-(4-(5-fluoro-4-(methylamino)-2-oxopyridin-1 (2H)-yl)-1-methyl-1H-pyrrolo[2,3-b]pyridin-2-yl)ethyl)-1,2,3,6-tetrahydropyridin-4-yl)benzoyl)-piperidin-4-yl)methyl)-3-methylpiperazin-1-yl)methyl)-3,3-dimethyl-2-oxoindolin-1-yl)piperidine-2,6-dione], the DC50 in assay [1] came out at 3.8 nM. In addition, the EC50 in assay [2] turned out to be 4.9 nM.

As to `CNc1cc(=O)n(-c2ccnc3c2cc([C@H](C)N2CC=C(c4c(C)cc(C(=O)N5CCC(CN6CCN(Cc7ccc8c(c7)n(C)c(=O)n8C7CCC(=O)NC7=O)CC6)CC5)cc4F)CC2)n3C)cc1F` (stereo partly drawn) [Example 3u13, 3-(5-((4-((1-(3-fluoro-4-(1-((S)-1-(4-(5-fluoro-4-(methylamino)-2-oxopyridin-1 (2H)-yl)-1-methyl-1H-pyrrolo[2,3-b]pyridin-2-yl)ethyl)-1,2,3,6-tetrahydropyridin-4-yl)-5-methylbenzoyl)-piperidin-4-yl)methyl)piperazin-1-yl)methyl)-3-methyl-2-oxo-2,3-dihydro-1H-benzo[d]imidazol-1-yl)piperidine-2,6-dione], the 50% degradation concentration (DC50) in assay [1] is 0.7 nM. This compound also returned a concentration giving a half-maximal response (EC50) in assay [2] of 1 nM.

For the compound `CNc1ccn(-c2ccnc3c2cc(CN2CCC(c4c(F)cc(C(=O)N5CCC(CN6CCN(Cc7ccc8c(c7)C(C)(C)C(=O)N8C7CCC(=O)NC7=O)CC6)CC5)cc4F)CC2)n3C)c(=O)c1` (stereo not shown) [Example 3u16, 3-(5-((4-((1-(3,5-difluoro-4-(1-((1-methyl-4-(4-(methylamino)-2-oxopyridin-1 (2H)-yl)-1H-pyrrolo[2,3-b]pyridin-2-yl)methyl)piperidin-4-yl)benzoyl)piperidin-4-yl)methyl)piperazin-1-yl)-methyl)-3,3-dimethyl-2-oxoindolin-1-yl)piperidine-2,6-dione], the DC50 in assay [1] is 11.2 nM. In assay [2], the EC50 was 12.1 nM.

`CNc1ccn(-c2ccnc3c2cc(CN2CCC(c4c(F)cc(C(=O)N5CCC(CN6CCN(Cc7ccc8c(c7)n(C)c(=O)n8C7CCC(=O)NC7=O)C[C@@H]6C)CC5)cc4F)CC2)n3C)c(=O)c1` (stereo partly drawn) [Example 3u19, 3-(5-(((S)-4-((1-(3,5-difluoro-4-(1-((1-methyl-4-(4-(methylamino)-2-oxopyridin-1 (2H)-yl)-1H-pyrrolo[2,3-b]pyridin-2-yl)methyl)piperidin-4-yl)benzoyl)piperidin-4-yl)methyl)-3-methyl-piperazin-1-yl)methyl)-3-methyl-2-oxo-2,3-dihydro-1H-benzo[d]imidazol-1-yl)piperidine-2,6-dione]: the DC50 in assay [1] was 0.7 nM. In assay [2], it took 0.3 nM to reach a half-maximal effect (EC50).

`CNc1cc(=O)n(-c2ccnc3c2cc([C@H](C)N2CC=C(c4c(C)cc(C(=O)N5CC=C(CC6CCN(c7ccc8c(c7)C7(CC7)C(=O)N8C7CCC(=O)NC7=O)CC6)CC5)cc4F)CC2)n3C)cc1F` (stereo partly drawn) [Example 3u20, 3-(5′-(4-((1-(3-fluoro-4-(1-((S)-1-(4-(5-fluoro-4-(methylamino)-2-oxopyridin-1 (2H)-yl)-1-methyl-1H-pyrrolo[2,3-b]pyridin-2-yl)ethyl)-1,2,3,6-tetrahydropyridin-4-yl)-5-methyl-benzoyl)-1,2,3,6-tetrahydropyridin-4-yl)methyl)piperidin-1-yl)-2′-oxospiro[cyclopropane-1,3′-indolin]-1′-yl)piperidine-2,6-dione]: the DC50 in assay [1] came to 4.7 nM. The compound also yielded a concentration giving a half-maximal response (EC50) in assay [2] of 11.7 nM.

As to `Cc1cc(C(=O)N2CCC(CN3CCN(Cc4ccc5c(c4)n(C)c(=O)n5C4CCC(=O)NC4=O)CC3)CC2)cc(F)c1C1=CCN([C@@H](C)c2cc3c(-n4ccc5c(c4=O)CCN5)ccnc3n2C)CC1` (stereo partly drawn) [Example 3u22, 3-(5-((4-((1-(3-fluoro-5-methyl-4-(1-((S)-1-(1-methyl-4-(4-oxo-1,2,3,4-tetrahydro-5H-pyrrolo[3,2-c]pyridin-5-yl)-1H-pyrrolo[2,3-b]pyridin-2-yl)ethyl)-1,2,3,6-tetrahydropyridin-4-yl)-benzoyl)piperidin-4-yl)methyl)piperazin-1-yl)methyl)-3-methyl-2-oxo-2,3-dihydro-1H-benzo[d]-imidazol-1-yl)piperidine-2,6-dione], in assay [1], the DC50 came to 0.7 nM. For the same compound, the EC50 in assay [2] is 0.8 nM.

With `CNc1cc(=O)n(-c2ccnc3c2cc(CN2CCC(c4c(F)cc(C(=O)N5CCC(CN6CCN(Cc7ccc8c(c7)n(C)c(=O)n8C7CCC(=O)NC7=O)CC6)CC5)cc4F)CC2)n3C)cc1F` (stereo not shown) [Example 3u26, 3-(5-((4-((1-(3,5-difluoro-4-(1-((4-(5-fluoro-4-(methylamino)-2-oxopyridin-1 (2H)-yl)-1-methyl-1H-pyrrolo[2,3-b]pyridin-2-yl)methyl)piperidin-4-yl)benzoyl)piperidin-4-yl)methyl)piperazin-1-yl)methyl)-3-methyl-2-oxo-2,3-dihydro-1H-benzo[d]imidazol-1-yl)piperidine-2,6-dione], the DC50 in assay [1] was found to be 2.9 nM. The compound also showed an EC50 in assay [2] of 3.4 nM.

Regarding `CNc1ccn(-c2ccnc3c2cc(CN2CCC(c4c(F)cc(C(=O)N5CCC(CN6CCN(Cc7ccc8c(c7)n(C)c(=O)n8C7CCC(=O)NC7=O)CC6)CC5)cc4F)CC2)n3C)c(=O)c1` (stereo not shown) [Example 3u29, 3-(5-((4-((1-(3,5-difluoro-4-(1-((1-methyl-4-(4-(methylamino)-2-oxopyridin-1 (2H)-yl)-1H-pyrrolo[2,3-b]pyridin-2-yl)methyl)piperidin-4-yl)benzoyl)piperidin-4-yl)methyl)piperazin-1-yl)methyl)-3-methyl-2-oxo-2,3-dihydro-1H-benzo[d]imidazol-1-yl)piperidine-2,6-dione], the DC50 in assay [1] was 1.7 nM. The 50% effective concentration (EC50) in assay [2] was 0.9 nM.

In the case of `CNc1ccn(-c2ccnc3c2cc([C@H](C)N2CC=C(c4c(C)cc(C(=O)N5CCC(CN6CCN(Cc7ccc8c(c7)n(C)c(=O)n8C7CCC(=O)NC7=O)C[C@@H]6C)CC5)cc4F)CC2)n3C)c(=O)c1` (stereo partly drawn) [Example 3u32, 3-(5-(((S)-4-((1-(3-fluoro-5-methyl-4-(1-((S)-1-(1-methyl-4-(4-(methylamino)-2-oxopyridin-1 (2H)-yl)-1H-pyrrolo[2,3-b]pyridin-2-yl)ethyl)-1,2,3,6-tetrahydropyridin-4-yl)benzoyl)-piperidin-4-yl)methyl)-3-methylpiperazin-1-yl)methyl)-3-methyl-2-oxo-2,3-dihydro-1H-benzo[d]-imidazol-1-yl)piperidine-2,6-dione], in assay [1], the DC50 was 0.2 nM. It took 0.3 nM to reach a half-maximal effect in assay [2] (EC50).
